Assay results from patent EP0353047B1, “Use of imidazopyrazole derivatives as analgesics and anti-inflammatory agents” (Sankyo Company Limited, priority 1988, dated 1990).
Marks after values point to notes of the source that are not given here.

Tests used:
[1] = test system: inflammation induced by anti-rat IgG rabbit serum; experiment: Anti-inflammatory effect (reversed passive alusas reaction, Evans blue extraction); type: in vivo, rats of the Sprague-Dawley strain; details: 2.5 h, percent inhibition of inflammation relative to control group, dose 25 mg/kg (*), oral
Experimental: The test animals were rats of the Sprague-Dawley strain, which had first been fasted for 17 hours. The hair was trimmed from their dorsal portions by means of a hair clipper, and 0.1 ml/site of anti-rat IgG rabbit serum was injected intracutaneously at the trimmed part to induce inflammation. Except in the case of the control animals, to which no anti-inflammatory drug was administered, the test drug was administered orally immediately before inflammation was induced. Except where otherwise noted, the dose of test compound was 50 mg/kg. Two hours after induction of inflammation, a 1% by volume solution of Evans blue in physiological saline was injected intravenously into the tail of each rat in an amount of 1 ml per each animal. 30 minutes after this injection, the rats were sacrificed with carbon dioxide and their skins were peeled off to extract the chromogen of the blue spots. In more detail, the skins were cut into small pieces and extracted with 5 ml of an extraction solvent at room temperature for 2 days. The supernatant obtained by centrifugation was then measured spectrophotometrically at an absorption wavelength of 605 nm. The percent inhibition of inflammation of the group of rats to which the test drug was administered was determined relative to the control group.

[2] = test system: carrageenan-induced edema; experiment: Anti-inflammatory effect (carrageenan edema method); type: in vivo, rats of the Wistar strain; details: Rattus norvegicus; percent inhibition of carrageenan-induced edema; dose 25 mg/kg (*), oral
Experimental: The percent inhibition against carrageenan-induced edema in rats of the Wistar strain, using the conventional method of C.A. Winter, E.A. Risley, G.W. Nuss [J. Pharmacol., Exp. Therap., 141, 369 (1963)]. Except where otherwise noted, the dose of test compound was 50 mg/kg.

[3] = Acute toxicity; type: in vivo; details: mouse, in vivo; fraction of animals; dose 300 mg/kg oral in 0.5% carboxymethyl cellulose, observed for 7 days
Experimental: The test animals employed were male mice of the ddy strain (age: 5 weeks). […] The dose of test compound was 300 mg/kg.

[4] = test system: rats of the Wistar strain; experiment: Analgesic effect (Randall-Selitto method); type: in vivo; details: fraction of animals; dose 25 mg/kg (*), oral
Experimental: These tests were conducted according to the Randall-Selitto method using rats of the Wistar strain [L.O. Randall, J.J. Selitto: Arch. int. Pharmacodyn. 111, 409 (1957)]. Except where otherwise noted, the dose of test compound was 50 mg/kg.

Compound: Cc1ccc(-c2cnn3cc[nH]c23)cc1 [Example 35, 7-(p-methylphenyl)-1H-imidazo[1,2-b]pyrazole]
- inhibition in vivo at 25 mg/kg [1]: 69.9%
- inhibition in vivo at 25 mg/kg [2]: 56.4%
- mortality at 168 h [3]: 30%
- Analgesic effect (Randall-Selitto) [4]: 5/5*
